Experimental data from patent publication US9012492B2, “Apocynin-lipoic acid conjugates and uses thereof” (priority 2011, dated 2015).

Tests used:
[1] = Stability in methanolic solution; assay type: physicochemical; settings: stock 1 mg/mL in methanol
[2] = test system: human liver microsomes (HLM); experiment: Metabolic stability using human liver microsomes; assay type: in vitro ADME
Text: Table 9 summarizes the experimental conditions used in the studies of the metabolic stability of the compound of Formula (Ia) using dog liver microsomes and human liver microsomes.

rat liver microsomes = experiment: Metabolic stability using rat liver microsomes; assay type: in vitro ADME; settings: RLM
Text: Table 7 summarizes the experimental conditions used in the studies of the metabolic stability of the compound of Formula (Ia) using rat liver microsomes. Table 8 and FIG. 13 show the results from the studies of the metabolic stability of the compound of Formula (Ia) using rat liver microsomes. [table]

[3] = Stability in sodium phosphate buffer (HPLC); assay type: physicochemical; settings: for stability in sodium phosphate buffer: 50 mM, HPLC; for half-life: buffer without microsomes and without NADPH; for half-life / % Metabolism in 30 minutes / CLintr (mL/min/g liver): matrix buffer (no microsomes, no NADPH)
Protocol: The stability of the compound of Formula (Ia) in a sodium phosphate buffer (50 mM, pH 7.4) was evaluated using HPLC. […] Area counts of apocynin and lipoid acid were found in 0 minute samples and were generally constant until the last time point measured (see: FIGS. 11-12 and Tables 5-6).

[4] = test system: markers of oxidative stress (SOD1, SOD2, GSH, GSSG, H2O2, HNE-His adducts, DNA fragmentation); experiment: Markers of oxidative stress in ischemic cortex following I/R; assay type: in vivo, rat
Protocol: To examine the effect of the compound of Formula (Ia) on various markers of oxidative stress throughout the 5.5 h of reperfusion, injections of the optimal dose of the compound of Formula (Ia) (0.1 mg/kg; 1 ml/kg iv; n=5 per group at each time point) or vehicle (25% EtOH; 1 ml/kg iv; n=5 per group at each time point) were made 30 min prior to the onset of MCAO. The sutures were left in place for 30 min. Brains were removed, and cortical tissue was collected at the end of the 30 min of occlusion (no reperfusion), or following 30 min, 1, 2, 4, or 5.5 h of reperfusion. At the end of each time point, animals were perfused transcardially with 200 ml of 100 mM PBS (pH 7.4), and the brains were removed. The ipsilateral cerebral cortex was isolated, and an 8-mm diameter biopsy punch was used to obtain tissue from the ischemic core. The tissue was weighed and homogenized (40% wt/vol) in ice-cold PBS. Aliquots of whole homogenate were frozen at −80° C. immediately for measurements of hydrogen peroxide (H2O2). The remaining sample was diluted 1:2 with ice-cold PBS and centrifuged at 12,000 g for 15 min at 4° C. Aliquots of the supernatant were stored at −80° C. until assayed for protein levels, superoxide dismutase (SOD1 and SOD2) activity, 4-hydroxynonenal-histodine (HNE-His) adducts (OxiSelect Kits, Cell Biolabs, San Diego, Calif.), reduced glutathione (GSH), oxidized glutathione (GSSG; Cayman Chemical, Ann Arbor Mich.), and cytoplasmic enrichment of DNA fragments (apoptosis) (Roche Diagnostics, Montreal, QC, Canada) using selective assay kits according to manufacturer's specifications.

## COc1cc(C(C)=O)ccc1OC(=O)CCCCC1CCSS1 (centres unmarked) [compound of Formula (Ia)]
[1]
  stability in methanolic solution: stable
[2]; HLM control (without NADPH)
  % Metabolism in 30 minutes: 0%
  CLintr (mL/min/g liver): >67 mL/min/g liver
[2]; HLM reaction (with NADPH)
  % Metabolism in 30 minutes: 0%
  CLintr (mL/min/g liver): >67 mL/min/g liver
Rat liver microsomes; control (without NADPH)
  % Metabolism in 30 minutes: 0%
  CLintr (mL/min/g liver): >67 mL/min/g liver
Rat liver microsomes; reaction (with NADPH)
  % Metabolism in 30 minutes: 0%
  CLintr (mL/min/g liver): >67 mL/min/g liver
[3]; 0.5 μM in sodium phosphate buffer (50 mM, pH 7.4), 0 min, Set-1
  % Remaining: 100%
[3]; 0.5 μM in sodium phosphate buffer (50 mM, pH 7.4), 3 min, Set-1
  % Remaining: 64%
[3]; 0.5 μM in sodium phosphate buffer (50 mM, pH 7.4), 6 min, Set-1
  % Remaining: 50%
[3]; 0.5 μM in sodium phosphate buffer (50 mM, pH 7.4), 9 min, Set-1
  % Remaining: 55%
[3]; 0.5 μM in sodium phosphate buffer (50 mM, pH 7.4), 12 min, Set-1
  % Remaining: 50%
[3]; 0.5 μM in sodium phosphate buffer (50 mM, pH 7.4), 15 min, Set-1
  % Remaining: 50%
[3]; 0.5 μM in sodium phosphate buffer (50 mM, pH 7.4), 18 min, Set-1
  % Remaining: 50%
[3]; 0.5 μM in sodium phosphate buffer (50 mM, pH 7.4), 21 min, Set-1
  % Remaining: 73%
[3]; 0.5 μM in sodium phosphate buffer (50 mM, pH 7.4), 27 min, Set-1
  % Remaining: 64%
[3]; 0.5 μM in sodium phosphate buffer (50 mM, pH 7.4), 30 min, Set-1
  % Remaining: 77%
[3]; 0.5 μM, pH 7.4
  stability in sodium phosphate buffer: stable
[3]; 10 μM in sodium phosphate buffer (50 mM, pH 7.4), 0 min, Set-1
  % Remaining: 100%
[3]; 10 μM in sodium phosphate buffer (50 mM, pH 7.4), 3 min, Set-1
  % Remaining: 83%
[3]; 10 μM in sodium phosphate buffer (50 mM, pH 7.4), 6 min, Set-1
  % Remaining: 73%
[3]; 10 μM in sodium phosphate buffer (50 mM, pH 7.4), 9 min, Set-1
  % Remaining: 83%
[3]; 10 μM in sodium phosphate buffer (50 mM, pH 7.4), 12 min, Set-1
  % Remaining: 73%
[3]; 10 μM in sodium phosphate buffer (50 mM, pH 7.4), 15 min, Set-1
  % Remaining: 74%
[3]; 10 μM in sodium phosphate buffer (50 mM, pH 7.4), 18 min, Set-1
  % Remaining: 71%
[3]; 10 μM in sodium phosphate buffer (50 mM, pH 7.4), 21 min, Set-1
  % Remaining: 76%
[3]; 10 μM in sodium phosphate buffer (50 mM, pH 7.4), 27 min, Set-1
  % Remaining: 57%
[3]; 10 μM in sodium phosphate buffer (50 mM, pH 7.4), 30 min, Set-1
  % Remaining: 79%
[3]; 10 μM, pH 7.4
  stability in sodium phosphate buffer: stable
[3]; DLM/HLM study
  half-life: 23 min
  % Metabolism in 30 minutes: 34%
  CLintr (mL/min/g liver): 3.2 mL/min/g liver
[3]; rat liver microsome study
  half-life: > 30 min
  % Metabolism in 30 minutes: 21%
  CLintr (mL/min/g liver): 2.3 mL/min/g liver
[3]; buffer, 0 h, 0.5 μM, pH 7.4
  % Remaining: 100%
  Apocynin area counts, % Remaining: 100%
  Lipoic acid area counts, % Remaining: 100%
[3]; buffer, 0 h, 10 μM, pH 7.4
  % Remaining: 100%
  Apocynin area counts, % Remaining: 100%
  Lipoic acid area counts, % Remaining: 100%
[3]; buffer, 0.05 h, 0.5 μM, pH 7.4
  % Remaining: 71%
  Apocynin area counts, % Remaining: 78%
  Lipoic acid area counts, % Remaining: 103%
[3]; buffer, 0.05 h, 10 μM, pH 7.4
  % Remaining: 92%
  Apocynin area counts, % Remaining: 96%
  Lipoic acid area counts, % Remaining: 100%
[3]; buffer, 0.1 h, 0.5 μM, pH 7.4
  % Remaining: 59%
  Apocynin area counts, % Remaining: 68%
  Lipoic acid area counts, % Remaining: 99%
[3]; buffer, 0.1 h, 10 μM, pH 7.4
  % Remaining: 80%
  Apocynin area counts, % Remaining: 91%
  Lipoic acid area counts, % Remaining: 105%
[3]; buffer, 0.15 h, 0.5 μM, pH 7.4
  % Remaining: 47%
  Apocynin area counts, % Remaining: 65%
  Lipoic acid area counts, % Remaining: 91%
[3]; buffer, 0.15 h, 10 μM, pH 7.4
  % Remaining: 87%
  Apocynin area counts, % Remaining: 94%
  Lipoic acid area counts, % Remaining: 113%
[3]; buffer, 0.2 h, 0.5 μM, pH 7.4
  % Remaining: 53%
  Apocynin area counts, % Remaining: 71%
  Lipoic acid area counts, % Remaining: 89%
[3]; buffer, 0.2 h, 10 μM, pH 7.4
  % Remaining: 76%
  Apocynin area counts, % Remaining: 95%
  Lipoic acid area counts, % Remaining: 118%
[3]; buffer, 0.25 h, 0.5 μM, pH 7.4
  % Remaining: 65%
  Apocynin area counts, % Remaining: 68%
  Lipoic acid area counts, % Remaining: 106%
[3]; buffer, 0.25 h, 10 μM, pH 7.4
  % Remaining: 72%
  Apocynin area counts, % Remaining: 86%
  Lipoic acid area counts, % Remaining: 114%
[3]; buffer, 0.3 h, 0.5 μM, pH 7.4
  % Remaining: 59%
  Apocynin area counts, % Remaining: 70%
  Lipoic acid area counts, % Remaining: 96%
[3]; buffer, 0.3 h, 10 μM, pH 7.4
  % Remaining: 71%
  Apocynin area counts, % Remaining: 80%
  Lipoic acid area counts, % Remaining: 121%
[3]; buffer, 0.35 h, 0.5 μM, pH 7.4
  % Remaining: 76%
  Apocynin area counts, % Remaining: 82%
  Lipoic acid area counts, % Remaining: 117%
[3]; buffer, 0.35 h, 10 μM, pH 7.4
  % Remaining: 69%
  Apocynin area counts, % Remaining: 82%
  Lipoic acid area counts, % Remaining: 127%
[3]; buffer, 0.45 h, 0.5 μM, pH 7.4
  % Remaining: 71%
  Apocynin area counts, % Remaining: 79%
  Lipoic acid area counts, % Remaining: 119%
[3]; buffer, 0.45 h, 10 μM, pH 7.4
  % Remaining: 64%
  Apocynin area counts, % Remaining: 80%
  Lipoic acid area counts, % Remaining: 134%
[3]; buffer, 0.5 h, 0.5 μM, pH 7.4
  % Remaining: 94%
  Apocynin area counts, % Remaining: 85%
  Lipoic acid area counts, % Remaining: 151%
[3]; buffer, 0.5 h, 10 μM, pH 7.4
  % Remaining: 71%
  Apocynin area counts, % Remaining: 78%
  Lipoic acid area counts, % Remaining: 141%
[4]; 0.1 mg/kg iv 30 min prior to MCAO, 4-h time point
  mitochondrial SOD2 activity levels vs vehicle: significantly higher
[4]; 0.1 mg/kg iv 30 min prior to MCAO, after 5.5 h of reperfusion
  oxidized form of GSH (GSSG) vs vehicle: significantly greater
[4]; 0.1 mg/kg iv 30 min prior to MCAO, any time point
  total amount of GSH (oxidized and reduced forms) vs vehicle: No significant differences
[4]; 0.1 mg/kg iv 30 min prior to MCAO, any time point during 5.5 h reperfusion
  cytoplasmic SOD1 activity levels vs vehicle: no significant differences
[4]; 0.1 mg/kg iv 30 min prior to MCAO, any time point over 5.5 h reperfusion
  level of hydrogen peroxide vs vehicle: not significantly greater
[4]; 0.1 mg/kg iv 30 min prior to MCAO, each time point
  DNA fragmentation (apoptotic cell death): No significant changes
[4]; 0.1 mg/kg iv 30 min prior to occlusion, following 2 h of reperfusion
  HNE-His adduct levels vs vehicle: significantly attenuated
